According to patent publication US5086050A, “Method of treating inflammatory disorders and psoriasis with salts of azelastine” (priority 1989, dated 1992):
Where a name gives a salt, the structure may show the parent alone. Read-outs that look alike come from different tables or passages of the source. Values belong to the compound of their own block, whether it stands above or below them.

What was measured:
Format in all cases: physicochemical
[1] = Solubility in water at room temperature (salts of the invention)
[2] = Solubility and pH value of the aqueous solution on addition of excess acid
Text: Addition of excess amounts of acid increases the solubility of the salts. For example a 1-fold, preferably a 0.5-fold, in particular a 0.25-fold excess of acid may be used.
For example, the addition of acids yields the following solubility and following pH value of the aqueous solution: […]

[3] = Solubility in water at 20° C. (azelastine and previously known salts)
[4] = aqueous solution, excess acid 0 mol
[5] = aqueous solution, excess acid 0.1 mol
[6] = aqueous solution, excess acid 0.25 mol

Solubility in water [1]: more than 10%
pH value [2, 4]: 5.15
pH value [2, 5]: 4.6
pH value [2, 6]: 4.1
Solubility ([2]; excess acid 0 mol): 3%
Solubility ([2]; excess acid 0.1 mol): 5%
Solubility ([2]; excess acid 0.25 mol): 10%
Compound: CN1CCCC(n2nc(Cc3ccc(Cl)cc3)c3ccccc3c2=O)CC1 (stereo not drawn) [lactate, azelastine lactate]

Solubility in water [1]: up to 55%
pH value ([2]; aqueous solution, excess acid 0.5 mol): 4.5
Solubility ([2]; aqueous solution, excess acid 0.5 mol, read-out: Solubility): 100 mg/mL
Compound: CN1CCCC(n2nc(Cc3ccc(Cl)cc3)c3ccccc3c2=O)CC1 (stereo not drawn) [gluconate, azelastine gluconate]

Solubility in water [3]: ca. 1%
Compound: CN1CCCC(n2nc(Cc3ccc(Cl)cc3)c3ccccc3c2=O)CC1 (stereo not drawn) [maleate]

Solubility in water [3]: 1%
Compound: CN1CCCC(n2nc(Cc3ccc(Cl)cc3)c3ccccc3c2=O)CC1 (stereo not drawn) [hydrochloride]

Solubility in water [1]: more than 10%
pH value [2, 4]: 6.35
pH value [2, 5]: 5.52
Solubility ([2]; aqueous solution, excess acid 0.1 mol, read-out: Solubility): 30 mg/mL
pH value [2, 6]: 5.1
Solubility ([2]; aqueous solution, excess acid 0.25 mol, read-out: Solubility): 100 mg/mL
Solubility ([2]; excess acid 0 mol): 2%
Compound: CN1CCCC(n2nc(Cc3ccc(Cl)cc3)c3ccccc3c2=O)CC1 (stereo not drawn) [acetate, azelastine acetate]

Solubility in water [3]: under 1%
Compound: CN1CCCC(n2nc(Cc3ccc(Cl)cc3)c3ccccc3c2=O)CC1 (stereo not drawn) [toluene sulphonate]

Solubility in water [3]: under 1%
Compound: CN1CCCC(n2nc(Cc3ccc(Cl)cc3)c3ccccc3c2=O)CC1 (stereo not drawn) [benzene sulphonate]

Solubility in water [3]: 0.0015%
Compound: CN1CCCC(n2nc(Cc3ccc(Cl)cc3)c3ccccc3c2=O)CC1 (stereo not drawn) [embonate]

Solubility in water [3]: 0.005%
Compound: CN1CCCC(n2nc(Cc3ccc(Cl)cc3)c3ccccc3c2=O)CC1 (stereo not drawn) [Azelastine, 4-(4-chlorobenzyl)-2-(perhydro-1methylazepine-4-yl)-1-(2H) phthalazinone]

Solubility in water [3]: ca. 1%
Compound: CN1CCCC(n2nc(Cc3ccc(Cl)cc3)c3ccccc3c2=O)CC1 (stereo not drawn) [phosphate]

Solubility in water [3]: ca. 1%
Compound: CN1CCCC(n2nc(Cc3ccc(Cl)cc3)c3ccccc3c2=O)CC1 (stereo not drawn) [methane sulphonate]

Solubility in water [3]: under 1%
Compound: CN1CCCC(n2nc(Cc3ccc(Cl)cc3)c3ccccc3c2=O)CC1 (stereo not drawn) [fumarate]

Solubility in water [3]: ca. 1%
Compound: CN1CCCC(n2nc(Cc3ccc(Cl)cc3)c3ccccc3c2=O)CC1 (stereo not drawn) [succinate]

Solubility in water [1]: 3%
pH value [2, 4]: 3.85
Solubility ([2]; excess acid 0 mol): 5%
Compound: CN1CCCC(n2nc(Cc3ccc(Cl)cc3)c3ccccc3c2=O)CC1 (stereo not drawn) [malate, azelastine malate]
